Assay [1] has as its system phospho-Akt(Ser473)/total-Akt(Ser473). Briefly: phospho-Akt(Ser473)/total-Akt in C2C12 myotube cells (Western blot). As to conditions: 25 min. The format is cell-based. Here is the method: (§1) In the present invention, C2C12 skeletal myoblasts (ATCC, CRL-1772) were maintained in growth media consisting of Dulbecco's modified Eagle's medium (DMEM) (Gibco BRL) and supplemented with 10% Fetal Bovine Serum (FBS) (Hyclone) and 100 U/mL penicillin/100 μg/mL streptomycin (Gibco BRL), and split 1:4 using 0.05% trypsin when 80% confluent. Myoblasts were diluted and placed in a 9 cm-diameter dish. Cells were cultured to achieve 80%-90% confluency and then the growth media was changed as 2% FBS/DMEM every 24 h for 5-7 days.
(§2) In experiments for determining GLUT4 and p-Akt(Ser473)/t-Akt proteins in tubes, differentiated C2C12 cells were serum-starved in DMEM/BSA for 2 h at 37° C. prior to incubation with MeOH crude extract (at 20, 100, 200, and 500 μg/mL), test compounds (at 1, 5, 10, and 25 μg/mL), or vehicle for 25 min, or 100 nM insulin for 25 min.
(§3) The cultures obtained by cell culture above were centrifuged, and the resulting pellet was resuspended in a homogenization buffer. The forgoing steps were performed with a filtration membrane. Protein concentrations were measured using a BCA assay (Pierce). Equal amounts of protein were diluted four times in SDS sample buffer, and subjected to SDS PAGE and Western blotting with antibodies specific for Akt, p-Akt Ser^473, and GLUT4. Density blotting analysis was performed using Alpha Easy FC software.
Background: A western blot detects proteins with antibodies after separation by electrophoresis.

Assay [2] relates to membrane GLUT4. The assay can be described thus: Membrane GLUT4 protein expression in C2C12 myotube cells (Western blot). As to conditions: 25 min. The format is cell-based. Here is the method:
as §1, §2, §3

The nature of assay [3]: HFD-induced diabetic mice: absolute tissue weight, body weight, food intake. Format: in vivo, C57BL/6J mice. The conditions noted are these: 4 weeks. From the text: (§4) The difference indicates the daily food intake.
Assay [4] in a line: HFD-induced diabetic mice: liver lipids. Format: in vivo, C57BL/6J mice. As to conditions: 4 weeks.
A short description of assay [5]: HFD-induced diabetic mice: fasting blood glucose and biochemical indexes. The conditions noted are these: 4 weeks; for Blood glucose: 12 h fasted HFD mice; for Insulin / Leptin: blood.
Protocol: The control group and HFD group contained 10% and 45% fat intake, respectively. The HFD mice were subdivided into 6 groups (9 per group) followed by 8-week induction. […] During the experiment, all mice were fasted overnight, and blood samples were collected from the retro-orbital sinus. Following four-week treatment and feeding, the food was removed, and the mice were fasted for 12 h and then sacrificed. Tissue samples required were collected from the mice and weighted. Some of the tissue samples were immediately stored at −80° C. and frozen for subsequent target gene analysis. Plasma samples were collected via centrifugation of whole blood at 1600×g for 15 min at 4° C., followed by plasma separation within 30 min. Some plasma samples obtained were used for TG and TC analysis. The metabolic parameters, including body weight, weight gain, and food intake, were performed as follows. Body weight was daily measured throughout the study. Body weight gain is considered as the difference between one day and the next day. The total weight of food intake was daily measured, followed by weighing the amount of remaining feed after 24 h. The difference indicates the daily food intake.
One part of the forgoing blood samples collected from the retro-orbital sinus of 12 h fasted mice was immediately used for analysis of glucose levels. The other part was used for analysis of blood TG, TC, free fatty acids, blood insulin, leptin, and adiponectin levels. Blood glucose levels were determined by a glucose analyzer (Model 1500 sidekick glucose analyzer, YSI). Plasma triglycerides (TG), total cholesterol (TC), and free fatty acids (FFA) were determined using commercial kits in accordance with manufacturer's instructions (Triglycerides-E test, Cholesterol-E test, and FFA-C test; Wako Pure Chemical, Osaka, Japan). Insulin and leptin levels were measured by enzyme-linked immunosorbent assay (ELISA) (mouse insulin ELISA kit, Mercodia, Uppsala, Sweden; mouse leptin ELISA kit, Morinaga, Yokohama, Japan).
A short description of assay [6]: HFD-induced diabetic mice: histopathology (H-E) of epididymal white adipose and liver tissue. The format is in vivo, C57BL/6J mice. The conditions noted are these: epididymal white adipose, 4 weeks. As to the method:
as §4
Examination was performed for parts of EWAT (epididymal white adipose) and liver tissue specimens collected. The specimens above were soaked in formalin and neutral buffered solution and embedded in paraffin. Parts therein (8 μm) were cut and stained with hematoxylin and eosin. Images were photographed by a microscope (Olympus BX51, Olympus, Tokyo, Japan). Please refer to FIGS. 3(A) and 3(B).

Assay [7] concerns 11β-HSD1. Briefly: Semiquantitative RT-PCR in liver tissue: 11β-HSD1. Format: in vivo, C57BL/6J mice. The conditions noted are these: vs HF; HF+Metf, 0.3 g/kg/day oral, 4 weeks. As to the method:
as §4
(§5) Total RNA from liver tissue was isolated with a Trizol Reagent (Molecular Research Center, Inc., Cincinnati, Ohio, USA) according to the manufacturer's instructions. The integrity of the extracted total RNA was examined by 2% agarose gel electrophoresis, and the RNA concentration was determined by […] ultraviolet (UV) light absorbency at 260 nm and 280 nm (Spectrophotometer U-2800A, Hitachi). The total RNA (1 μg) was reverse transcribed to cDNA, and 5 μL Moloney murine leukemia virus reverse transcriptase (TEpicentre, Madison, Wis., USA). The PCR was performed in a final 25 μL containing 1 U Blend Taq-Plus (TOYOBO, Japan), 10 μL of the RT cDNA product, 10 μM of each forward (F) and reverse (R) primer, 75 mM Tris-HCL (pH 8.3) containing 1 mg/L Tween 20 (pH 8.3, also known as polyoxyethylene sorbitan monolaurate), 2.5 mM dNTP (deoxy-ribonucleoside triphosphate), and 2 mM MgCl2 (magnesium chloride). The PCR products were analyzed by 2% agarose gel and stained with ethidium bromide.

In assay [8] the test system is G6-Pase. The assay can be described thus: Semiquantitative RT-PCR in liver tissue: G6-Pase. The format is in vivo, C57BL/6J mice. As to conditions: vs HF; HF+Metf, 0.3 g/kg/day oral, 4 weeks. Here is the method: as §4, §5
The test system of assay [9] is phospho-AMPK(Thr172). Briefly: Western blot of phospho-AMPK(Thr172)/total-AMPK in skeletal muscle and liver of HFD mice. As to conditions: compared to HF; HF+Metf, 0.3 g/kg/day oral, 4 weeks.
Protocol: (§6) The HFD mice were subdivided into 6 groups (9 per group) followed by 8-week induction. […] Following four-week treatment and feeding, the food was removed, and the mice were fasted for 12 h and then sacrificed. Tissue samples required were collected from the mice and weighted. Some of the tissue samples were immediately stored at −80° C. and frozen for subsequent target gene analysis. Plasma samples were collected via centrifugation of whole blood at 1600×g for 15 min at 4° C., followed by plasma separation within 30 min.
(§7) We determined PPARα and FAS protein expression levels in liver tissue, PPARγ and FAS protein expression levels in adipose tissue, and membrane GLUT4 expression in skeletal muscle adipose. The total membrane fraction was collected with the buffer and determined as previously described. The membrane GLUT4, p-AMPK, and total AMPK protein content were determined by Western Blotting as previously described.
Assay [10] has as its system SREBP-1c. The assay can be described thus: Semiquantitative RT-PCR in liver tissue: SREBP-1c. Format: in vivo, C57BL/6J mice. The conditions noted are these: vs HF; HF+Metf, 0.3 g/kg/day oral, 4 weeks. Here is the method:
as §4, §5

Assay [11] has as its system SREBP-2. The assay can be described thus: Semiquantitative RT-PCR in liver tissue: SREBP-2. The format is in vivo, C57BL/6J mice. As to conditions: vs HF; HF+Metf, 0.3 g/kg/day oral, 4 weeks. Here is the method: as §4, §5
For assay [12], the system named is FAS. Briefly: Western blot of FAS protein in liver and adipose tissue of HFD mice. As to conditions: compared to HF; HF+Metf, 0.3 g/kg/day oral, 4 weeks.
Protocol: as §6, §7
For assay [13], the system named is PPARγ. The assay can be described thus: Western blot of PPARγ protein in liver and adipose tissue of HFD mice. As to conditions: compared to HF; HF+Metf, 0.3 g/kg/day oral, 4 weeks.
Assay [14] relates to GPAT. Briefly: Semiquantitative RT-PCR in liver tissue: GPAT. The format is in vivo, C57BL/6J mice. As to conditions: vs HF; HF+Metf, 0.3 g/kg/day oral, 4 weeks. Here is the method: as §4, §5
In assay [15] the test system is PPARα. The assay can be described thus: Western blot of PPARα protein in liver of HFD mice. The conditions noted are these: compared to HF; HF+Metf, 0.3 g/kg/day oral, 4 weeks.
The test system of assay [16] is CPT-1a. Briefly: Semiquantitative RT-PCR in liver tissue: CPT-1a. The format is in vivo, C57BL/6J mice. As to conditions: vs HF; HF+Metf, 0.3 g/kg/day oral, 4 weeks. As to the method: as §4, §5
The test system of assay [17] is aP2. The assay can be described thus: Semiquantitative RT-PCR in liver tissue: aP2. Format: in vivo, C57BL/6J mice. The conditions noted are these: vs HF; HF+Metf, 0.3 g/kg/day oral, 4 weeks. As to the method: as §4, §5
For assay [18], the system named is membrane GLUT4. The assay can be described thus: Western blot of skeletal muscle membrane GLUT4 in HFD mice. The conditions noted are these: compared to HF; HF+Metf, 0.3 g/kg/day oral, 4 weeks.
Protocol: as §6, §7
Where [19] appears, read: HFD mice, HF+Feno, 250 mg/kg/day oral.
Where [20] appears, read: HFD mice, HF+Metf, 300 mg/kg/day oral.
The mark [21] stands for this setting: plasma, HFD mice, HF+Metf, 300 mg/kg/day oral.

`C=C(CC[C@@H](C)[C@H]1CC[C@H]2C3=C(C(=O)C[C@]12C)[C@@]1(C)CC[C@@H](O)[C@](C)(O)[C@@H]1C[C@@H]3O)C(C)C(=O)O` (stereo partly shown) [AnK, Antcin K]: in [1] (AnK 10 and 25 μg/mL), the “protein expression level of phospho-Akt(Ser473)/total-Akt(Ser473)” value was “increase”. Moreover, the “protein expression level of membrane GLUT4” value in assay [2] (5, 10, and 25 μg/mL) is reported as “increase”.

In assay [3] (HF+Feno, 250 mg/kg/day oral), `CC(C)OC(=O)C(C)(C)Oc1ccc(C(=O)c2ccc(Cl)cc2)cc1` [Feno, fenofibrate, reference compound] registered a Final body weight of 26.04 g, a Food intake of 2.05 g/day/mouse and a Weight gain of 0.46 g. Moreover, in assay [4] (HF+Feno, 250 mg/kg/day oral), the “Liver lipids: Total lipid” value is on record as 62.0 mg/g and the Liver lipids: Triacylglycerol stood at 48.6 µmol/g. In addition, the Blood glucose in [5] (HF+Feno, 250 mg/kg/day oral) was 86.56 mg/dL. In addition, in [5] (setting [19]), the “Plasma FFA” value was 0.86 meq/L, the Insulin was 2.402 µg/L and the Leptin was found to be 7.507 ng/mL. The compound also gave a TG in assay [5] (plasma, HFD mice, HF+Feno, 250 mg/kg/day oral) of 83.35 mg/dL. In assay [6] (HF+Feno, 0.25 g/kg/day oral), this compound had an Adipocyte area of 6270.5 ± 165.4 μm^2.

Regarding `CN(C)C(=N)N=C(N)N` [Metf, metformin, reference compound], in assay [7], the “11β-HSD1 mRNA expression level in liver” value was “decreased”. The “G6-Pase mRNA expression level in liver” value in assay [8] is recorded as “decreased”. Moreover, in assay [9], the “expression level of p-AMPK/t-AMPK proteins in liver” value is on record as “significantly increased” and the “expression level of phospho-AMPK/total-AMPK in skeletal muscle” value is on record as “significantly increased”. In addition, the “SREBP-1c mRNA expression level in liver” value in assay [10] is on record as “decreased”. Also, the “SREBP-2 mRNA expression level in liver” value in [11] is listed as “decreased”. In [3] (EWAT plus RWAT, HF+Metf, 300 mg/kg/day oral), the Absolute tissue weight: Visceral fat is 662 mg. In assay [3] (HF+Metf, 300 mg/kg/day oral), this compound displayed an Absolute tissue weight: Brown adipose tissue (BAT) of 134 mg, an Absolute tissue weight: Epididymal white adipose tissue (EWAT) of 482 mg, an Absolute tissue weight: Liver of 1960 mg and an Absolute tissue weight: Mesenteric white adipose tissue (MWAT) of 198 mg. Also, in [3] (HF+Metf, 300 mg/kg/day oral), the Absolute tissue weight: Retroperitoneal white adipose tissue (RWAT) came to 180 mg, the Absolute tissue weight: Spleen was found to be 81 mg, the Final body weight is recorded as 26.35 g and the Food intake turned out to be 2.25 g/day/mouse. The Weight gain in assay [3] (HF+Metf, 300 mg/kg/day oral) is on record as 0.52 g. In assay [4] (HF+Metf, 300 mg/kg/day oral), the “Liver lipids: Total lipid” value came out at 61.1 mg/g and the Liver lipids: Triacylglycerol amounted to 49 µmol/g. In addition, in assay [12], the “FAS protein expression level in adipose tissue” value is “significantly decreased” and the “FAS protein expression level in liver” value is on record as “significantly decreased”. For the same compound, the Blood glucose in assay [5] (HF+Metf, 300 mg/kg/day oral) was 87.33 mg/dL. For the same compound, in assay [5] (setting [20]), the “Plasma FFA” value came out at 0.85 meq/L, the Insulin came to 2.467 µg/L and the Leptin is listed as 7.359 ng/mL. In assay [5] (setting [21]), this compound gave a TC of 117.20 mg/dL and a TG of 82.07 mg/dL. In assay [13], the “PPARγ protein expression level in adipose tissue” value is “significantly decreased” and the “PPARγ protein expression level in liver” value is listed as “significantly decreased”. Moreover, the “GPAT mRNA expression level in liver” value in [14] was “decreased”. Besides, in assay [15], the “PPAR protein expression level in liver” value is listed as “significantly increased”. Moreover, the “CPT-1a mRNA expression level in liver” value in assay [16] is on record as “increased”. Further, in [17], the “aP2 mRNA expression level in liver” value is “decreased”. For the same compound, the “membrane expression level of GLUT4 in skeletal muscle” value in assay [18] is on record as “significantly increased”. The Adipocyte area in [6] (HF+Metf, 0.3 g/kg/day oral) is 6919.5 ± 195.1 μm^2.

Consider insulin [reference compound], for which the “protein expression level of phospho-Akt(Ser473)/total-Akt(Ser473)” value in assay [1] (100 nM insulin) is reported as “increase”. Moreover, the “protein expression level of membrane GLUT4” value in assay [2] (100 nM insulin) is reported as “increase”.

The record behind these values is US20190030046A1, “USE OF PURE COMPOUNDS EXTRACTED FROM ANTRODIA CAMPHORATA” (priority 2016, published 2019).
